Settings: Liquid

CCCC[N+]1(C)CCCC1.FC(F)(F)C(F)(F)[P-](F)(F)(F)(C(F)(F)C(F)(F)F)C(F)(F)C(F)(F)F
viscosity [mPa·s]
Settings	10000 kPa	15000 kPa	25000 kPa	50000 kPa	75000 kPa	100000 kPa	125000 kPa	150000 kPa
303.15 K, Concentric cylinders viscometry	198.9	221.8	273.1	465.5	791.6	–	–	–
303.15 K, Falling or rolling sphere viscometry	189.5	212.4	265.5	454.7	765.1	1274	2111	3485
313.15 K, Concentric cylinders viscometry	118.9	131.3	162.6	263.5	434.8	–	–	–
313.15 K, Falling or rolling sphere viscometry	113.5	124.7	150.6	241.3	386.8	620.3	995.1	1597
323.15 K, Concentric cylinders viscometry	–	–	–	–	234.7	–	–	–
323.15 K, Falling or rolling sphere viscometry	73.4	80	94.9	145.4	222.6	340.5	520.9	797
333.15 K, Falling or rolling sphere viscometry	48	52	61	90.7	134.3	198.1	291.7	429.1
343.15 K, Falling or rolling sphere viscometry	33.9	36.5	42.2	60.5	86.9	124.5	178.5	255.8
353.15 K, Falling or rolling sphere viscometry	24.7	26.6	30.7	43.4	60.6	84.1	116	159.3

CCCC[N+]1(C)CCCC1.O=S(=O)([O-])C(F)(F)F [1-butyl-1-methylpyrrolidinium trifluoromethanesulfonate]
viscosity [mPa·s]
Settings	10000 kPa	15000 kPa	25000 kPa	50000 kPa	75000 kPa	100000 kPa	125000 kPa	150000 kPa
303.15 K, Concentric cylinders viscometry	147.2	158.4	181.8	249.5	341.1	–	–	–
303.15 K, Falling or rolling sphere viscometry	144.8	154.3	174.9	236.9	317.7	422.8	559.5	737.7
313.15 K, Concentric cylinders viscometry	–	–	–	148.1	202.2	–	–	–
313.15 K, Falling or rolling sphere viscometry	89.2	94.8	106.9	142.7	188.1	245.4	318.1	410.1
323.15 K, Falling or rolling sphere viscometry	58.9	62.5	70.2	92.3	119.5	153	194.1	244.7
333.15 K, Falling or rolling sphere viscometry	41.7	43.9	48.6	62.3	79	99.6	124.9	156
343.15 K, Falling or rolling sphere viscometry	29.9	31.4	34.7	44.2	55.7	69.6	86.4	106.8
353.15 K, Falling or rolling sphere viscometry	22.5	23.7	26.1	32.7	40.5	49.4	59.9	72

CC(C)CCCC(C)CCCC(C)CCCCC(C)CCCC(C)CCCC(C)C (configuration not stated) [2,6,10,15,19,23-hexamethyltetracosane]
viscosity [mPa·s], Falling or rolling sphere viscometry
Settings	10000 kPa	15000 kPa	25000 kPa	50000 kPa	75000 kPa	100000 kPa	125000 kPa	150000 kPa
303.15 K	27.4	30.8	38.2	62.7	98.5	150.8	227.4	339.5
313.15 K	18.4	20.4	24.8	39.1	59.5	88.7	130.3	189.8
323.15 K	13	14.3	17.1	26.1	38.7	56.3	80.9	115.4
333.15 K	9.2	10.1	12.1	18.2	26.5	37.8	53.2	74
343.15 K	7	7.6	9	13.3	19	26.7	37	50.8
353.15 K	5.4	5.9	6.9	10.1	14.2	19.5	26.4	35.5
